Target: Norepinephrine transporter (Rattus norvegicus, UniProt Q9JIA2)

Compound `CN1Cc2c(N)cccc2[C@H](c2ccccc2)C1` [(+/-)-2-Methyl-4-phenyl-1,2,3,4-tetrahydro-isoquinolin-8-ylamine] has a Ki of 15.9 nM.

Reference: BindingDB's records for doi:10.1016/0028-3908(88)90149-9 (Organon International, 1988)
